Data as given in US12364702B2, “Highly active sting protein agonist compound” (ADLAI NORTYE BIOPHARMA CO., LTD., priority 2018, dated 2025).
Like-named read-outs stand apart in the source and are kept apart here.

Legend:
Assay type in all cases: cell-based
STING = STING (Homo sapiens, UniProt Q86WV6); assay: IFN-β secretion from THP1 by STING activation (hIFNβ ELISA)
Method in brief: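 THP1 cells (2×10^6 cells/ml) exposed 24 h at 37° C, 5% CO2 to 8-point, 3-fold compound dilutions, 0.2% DMSO final, top dose set by solubility. Secreted IFN-β in supernatant measured by human IFNβ ELISA; EC50 from curve fitting.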

STING WT variant [1] = molecular target: T1, STING WT variant (Homo sapiens, UniProt Q86WV6); assay: SEAP reporter assay in HEK-Blue ISG KO-STING cells transfected with STING WT variant (Method 2); parameters: key: ratio of compound SEAP signal to 0.5% DMSO; conditions: 1 ng STING vector (WT variant), compound 2.5 uM, 24 h, SEAP signal vs 0.5% DMSO
T1 construct: host or cells: HEK-Blue ISG KO-STING cells (Invivogen, hkb-kostg)
Description: (§1) Activation of STING can be determined using a SEAP reporter assay in HEK-Blue™ ISG KO-STING cells (Invivogen, cat #hkb-kostg) transfected with plasmids expressing STING variants (WT & HAQ) (referred to WO2017/175147A1). STING variants (WT & HAQ) vector were constructed based on STING-232H vector (Origene, RC208418). GFP vector (VT2069) was bought from Youbio. The detailed protocol as follows: HEK-Blue™ ISG KO-STING cells were harvest and seeding into 96 well plate and the final cell number was 0.8×10^5 cells/well. Transfections were prepared using Lipofectamine 2000 (Invitrogen, Cat #11668-027) following the manufacturer's instructions (Lipo2000/DNA=1/10), 20 ul of transfection suspension containing 1 ng (WT variant) or 0.0625 ng (HAQ variant) STING vector was added to cell culture plate and incubated at 37° C., 5% CO2 for 24 hours. After 24 hours incubation, compounds were added at proper concentration, the final DMSO concentration was 0.5%. After 24 h incubation, the supernatant was collected to detect SEAP signal using Great EscAPe SEAP chemiluminescence KIT (Clontech, cat #631738) and cells were collected to detect cell viability using CellTiter-Glo Luminescent Cell Viability Assay (Promega, cat #G7573) following the manufacturer's instructions. The data were described by the ratio of the stimulating signal of compounds to 0.5% DMSO.

STING HAQ variant [2] = molecular target: T2, STING HAQ variant (Homo sapiens, UniProt Q86WV6, G230A/R293Q/R71H); assay: SEAP reporter assay in HEK-Blue ISG KO-STING cells transfected with STING HAQ variant (Method 2); parameters: key: ratio of compound SEAP signal to 0.5% DMSO; conditions: 0.0625 ng STING vector (HAQ variant), compound 5 uM, 24 h, SEAP signal vs 0.5% DMSO
T2 construct: host or cells: HEK-Blue ISG KO-STING cells (Invivogen, hkb-kostg)
T2 sequence (Q86WV6 whole entry R71H/G230A/R293Q): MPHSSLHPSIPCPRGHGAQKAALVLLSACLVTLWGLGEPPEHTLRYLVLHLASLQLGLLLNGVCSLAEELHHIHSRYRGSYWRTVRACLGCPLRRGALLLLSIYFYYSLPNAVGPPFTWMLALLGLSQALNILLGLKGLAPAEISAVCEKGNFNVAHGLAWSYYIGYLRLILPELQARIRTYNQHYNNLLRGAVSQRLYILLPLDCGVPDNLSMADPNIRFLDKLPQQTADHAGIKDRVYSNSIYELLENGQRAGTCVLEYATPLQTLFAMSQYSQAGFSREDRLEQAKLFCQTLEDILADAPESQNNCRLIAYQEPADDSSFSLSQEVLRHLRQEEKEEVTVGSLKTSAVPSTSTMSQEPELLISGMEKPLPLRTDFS
Description: as §1

STING WT variant [3] = molecular target: T1, STING WT variant; assay: SEAP reporter assay in HEK-Blue ISG KO-STING cells transfected with STING WT variant (Method 1); conditions: 24 h, SEAP signal vs 0.5% DMSO
Description: as §1, with “96 well plate, the final” for “96 well plate and the final”, “1 ng STING vector” for “1 ng (WT variant) or 0.0625 ng (HAQ variant) STING vector”, “After 24 hours' incubation, compounds” for “After 24 hours incubation, compounds”, “proper concentration, and the final” for “proper concentration, the final”

STING HAQ variant [4] = molecular target: T2, STING HAQ variant; assay: SEAP reporter assay in HEK-Blue ISG KO-STING cells transfected with STING HAQ variant (Method 1); conditions: 24 h, SEAP signal vs 0.5% DMSO
Description: as §1, with “96 well plate, the final” for “96 well plate and the final”, “1 ng STING vector” for “1 ng (WT variant) or 0.0625 ng (HAQ variant) STING vector”, “After 24 hours' incubation, compounds” for “After 24 hours incubation, compounds”, “proper concentration, and the final” for “proper concentration, the final”

[5] = THP1 cells; 24 h incubation; IFN-β in supernatant; top dose set according to solubility
[6] = THP1 cells; 24 h incubation; IFN-β in supernatant; top dose set according to solubility; read-out: hIFNβ ELISA (EC50)
[7] = 1 ng STING vector, compound 2.5 uM
[8] = 1 ng STING vector, compound 5 uM

Chain of STING (Q86WV6 whole entry): as the sequence (Q86WV6 whole entry R71H/G230A/R293Q) above, with H71R, A230G, Q293R counted along it

Structure (SMILES) | Fold change related to DMSO control WT (STING WT variant [1]) | Fold change related to DMSO control HAQ (STING HAQ variant [2]) | EC50 (STING; [6]) [µM] | Fold change related to DMSO control WT (STING WT variant [3]; [7]) | Fold change related to DMSO control HAQ (STING HAQ variant [4]; [8]) | also measured
CCn1nc(C)cc1C(=O)Nc1nc2cc(C#N)cc(OCCCNC(=O)CN3CCOCC3)c2n1CCC[C@H]1COc2cc(C#N)cc3nc(NC(=O)c4cc(C)nn4CC)n1c23 [Example 48, (S)—N-(5-cyano-1-(3-(7-cyano-2-(1-ethyl-3-methyl-1H-pyrazole-5-carboxamido)-3,4-dihydro-5-oxa-1,2a-diazaacenaphthylen-3-yl)propyl)-7-(3-(2-morpholinoacetamido)propoxy)-1H-benzo[d]imidazol-2-yl)-1-ethyl-3-methyl-1H-pyrazole-5-carboxamide] | 5.70 | 7.94 |  |  |  | hIFNβ ELISA (EC50, μM) (STING; [5]): inactive
CCn1nc(C)cc1C(=O)Nc1nc2cc(C(N)=O)cc(OCCCNC(=O)CN3CC(OC)C3)c2n1CCC[C@H]1COc2cc(C(N)=O)cc3nc(NC(=O)c4cc(C)nn4CC)n1c23 [Example 43, (S)-3-(3-(5-carbamoyl-2-(1-ethyl-3-methyl-1H-pyrazole-5-carboxamido)-7-(3-(2-(3-methoxyazetidin-1-yl)acetamido)propoxy)-1H-benzo[d]imidazol-1-yl)propyl)-2-(1-ethyl-3-methyl-1H-pyrazole-5-carboxamido)-3,4-dihydro-5-oxa-1,2a-diazaacenaphthylene-7-carboxamide] | 7.12 | 19.89 | 4.6 |  |  | 
CCn1nc(C)cc1C(=O)Nc1nc2cc(C(N)=O)cc(OCCCN(C)C)c2n1CCC[C@H]1COc2cc(C(N)=O)cc3nc(NC(=O)c4cc(C)nn4CC)n1c23 [Example 18, (S)-3-(3-(5-carbamoyl-7-(3-(dimethylamino)propoxy)-2-(1-ethyl-3-methyl-1H-pyrazole-5-carboxamido)-1H-benzo[d]imidazol-1-yl)propyl)-2-(1-ethyl-3-methyl-1H-pyrazole-5-carboxamido)-3,4-dihydro-5-oxa-1,2a-diazaacenaphthylene-7-carboxamide] |  |  | 18.2 | 2.64 | 40.66 | 
CCn1nc(C)cc1C(=O)Nc1nc2cc(C(N)=O)cc(OCCCO)c2n1CCC[C@H]1COc2cc(C(N)=O)cc3nc(NC(=O)c4cc(C)nn4CC)n1c23 [Example 6, (S)-3-(3-(5-carbamoyl-2-(1-ethyl-3-methyl-1H-pyrazole-5-carboxamido)-7-(3-hydroxypropoxy)-1H-benzo[d]imidazol-1-yl)propyl)-2-(1-ethyl-3-methyl-1H-pyrazole-5-carboxamido)-3,4-dihydro-5-oxa-1,2a-diazaacenaphthylene-7-carboxamide] |  |  | 4.8 |  |  | Fold change related to DMSO control WT (STING WT variant [3]; compound 57.9 uM): 1.71; Fold change related to DMSO control HAQ (STING HAQ variant [4]; compound 57.9 uM): 32.88
CCn1nc(C)cc1C(=O)Nc1nc2cc(C(N)=O)cc(OCCCOC)c2n1CCCC[C@H]1COc2cc(C(N)=O)cc3nc(NC(=O)c4cc(C)nn4CC)n1c23 [Example 8, (S)-3-(4-(5-carbamoyl-2-(1-ethyl-3-methyl-1H-pyrazole-5-carboxamido)-7-(3-methoxypropoxy)-1H-benzo[d]imidazol-1-yl)butyl)-2-(1-ethyl-3-methyl-1H-pyrazole-5-carboxamido)-3,4-dihydro-5-oxa-1,2a-diazaacenaphthylene-7-carboxamide] |  |  |  |  |  | Fold change related to DMSO control WT (STING WT variant [3]; compound 4.7 uM): 2.08; hIFNβ ELISA (EC50, μM) (STING; [5]): inactive; Fold change related to DMSO control HAQ (STING HAQ variant [4]; compound 4.7 uM): 8.09
CCn1nc(C)cc1C(=O)Nc1nc2cc(C(N)=O)cc(OCCCNS(C)(=O)=O)c2n1CCC[C@H]1COc2cc(C(N)=O)cc3nc(NC(=O)c4cc(C)nn4CC)n1c23 [Example 30, (S)-3-(3-(5-carbamoyl-2-(1-ethyl-3-methyl-1H-pyrazole-5-carboxamido)-7-(3-(methylsulfonamido)propoxy)-1H-benzo[d]imidazol-1-yl)propyl)-2-(1-ethyl-3-methyl-1H-pyrazole-5-carboxamido)-3,4-dihydro-5-oxa-1,2a-diazaacenaphthylene-7-carboxamide] |  |  | > 13 | 1.96 | 33.34 | 
CCn1nc(C)cc1C(=O)Nc1nc2cc(C(N)=O)cc(OCCCNC)c2n1CCC[C@H]1COc2cc(C(N)=O)cc3nc(NC(=O)c4cc(C)nn4CC)n1c23.Cl [Example 17, (S)-3-(3-(5-carbamoyl-2-(1-ethyl-3-methyl-1H-pyrazole-5-carboxamido)-7-(3-(methylamino)propoxy)-1H-benzo[d]imidazol-1-yl)propyl)-2-(1-ethyl-3-methyl-1H-pyrazole-5-carboxamido)-3,4-dihydro-5-oxa-1,2a-diazaacenaphthylene-7-carboxamide Hydrochloride] |  |  |  | 2.35 | 33.85 | EC50 (STING; read-out: hIFNβ ELISA (EC50); THP1 cells; 24 h incubation; IFN-β in supernatant; top dose set according to solubility): 9.8 µM

The next lines start with results.

Fold change related to DMSO control WT (STING WT variant [1]) | Fold change related to DMSO control HAQ (STING HAQ variant [2]) | EC50 (STING; [6]) [µM] | Fold change related to DMSO control WT (STING WT variant [3]; [7]) | Fold change related to DMSO control HAQ (STING HAQ variant [4]; [8]) | Structure (SMILES) | also measured
8.92 | 32.38 | 1.6 |  |  | CCn1nc(C)cc1C(=O)Nc1nc2cc(C(N)=O)cc(OCCCOC)c2n1CCC[C@H]1COc2cc(C(N)=O)cc3nc(NC(=O)c4c(F)c(C)nn4CC)n1c23 [Example 50, (S)-3-(3-(5-carbamoyl-2-(1-ethyl-3-methyl-1H-pyrazole-5-carboxamido)-7-(3-methoxypropoxy)-1H-benzo[d]imidazol-1-yl)propyl)-2-(1-ethyl-4-fluoro-3-methyl-1H-pyrazole-5-carboxamido)-3,4-dihydro-5-oxa-1,2a-diazaacenaphthylene-7-carboxamide] | 
 |  | 3.9 | 2.22 | 45.86 | CCn1nc(C)cc1C(=O)Nc1nc2cc(C(N)=O)cc(OCCCN(C)C(C)=O)c2n1CCC[C@H]1COc2cc(C(N)=O)cc3nc(NC(=O)c4cc(C)nn4CC)n1c23 [Example 27, (S)-3-(3-(5-carbamoyl-2-(1-ethyl-3-methyl-1H-pyrazole-5-carboxamido)-7-(3-(N-methylacetamido)propoxy)-1H-benzo[d]imidazol-1-yl)propyl)-2-(1-ethyl-3-methyl-1H-pyrazole-5-carboxamido)-3,4-dihydro-5-oxa-1,2a-diazaacenaphthylene-7-carboxamide] | 
 |  | 1.1 | 2.70 | 56.42 | CCn1nc(C)cc1C(=O)Nc1nc2cc(C(N)=O)cc(OCCCN3CCOCC3)c2n1CCC[C@H]1COc2cc(C(N)=O)cc3nc(NC(=O)c4cc(C)nn4CC)n1c23 [Example 24, (S)-3-(3-(5-carbamoyl-2-(1-ethyl-3-methyl-1H-pyrazole-5-carboxamido)-7-(3-morpholinopropoxy)-1H-benzo[d]imidazol-1-yl)propyl)-2-(1-ethyl-3-methyl-1H-pyrazole-5-carboxamido)-3,4-dihydro-5-oxa-1,2a-diazaacenaphthylene-7-carboxamide] | 
